We go through 27 molecules from US9376436B2, “2-(pyridin-2yl)-1, 7-diaza-spiro [4.4] nonane-6-one compound as voltage-gated sodium channels modulators” (CONVERGENCE PHARMACEUTICALS LIMITED, priority 2011, dated 2016).

This test concerns the target T1, hNaV1.7 (Homo sapiens, UniProt Q15858).
T1 construct: expressed in transfected cells; host or cells: HEK293
The test can be described thus: QPatch NaV1.7 assay (whole-cell patch clamp, QPatch16x). The format is cell-based. To be noted: HEK293-hNaV1.7 cells. Here is the method: The compounds of the invention were tested in a QPatch NaV1.7 assay.
HEK293-hNaV1.7 cells were grown in DMEM-F12+10% FBS culture media at 37° C. At a confluency of 50-70% cells were dissociated from culture flasks & triturated to ensure unicellular cell suspension; cell density was measured & adjusted to 2-3×10^6 cells/ml. Recordings were obtained using QPatch16x. The external solution was (in mM): NaCl, 128; KCl, 5; MgCl2, 2; CaCl2, 2; Glucose, 30; HEPES, 15; pH 7.3, 305-315 mOsm. Following seal formation and whole-cell access using internal solution (containing in mM: CsF, 135; EGTA/CsOH, 1/5; HEPES 10; NaCl, 10; pH 7.3, 310-320 mOsM), voltage pulse protocols were applied. Initially a steady state inactivation voltage protocol was used to determine the half-maximal voltage for steady state inactivation (V1/2 SSI). Two holding voltages were used to determine test drug inhibition: −90 mV, where most of the channels are in a closed state; and V1/2 SSI, where half of the channels are inactivated. Currents were elicited […] by stepping to a membrane potential of 0 mV for 20 ms. Four-point cumulative concentration responses were derived by determining the peak current amplitude at each concentration of test drug over 120 second application. Curves were fitted with the Hill equation yielding pIC50 values at −90 mV and V1/2 SSI holding potentials.
(In patch-clamp work, channel activity is measured electrically.)

[1] abbreviates: holding voltage V1/2 SSI (half of channels inactivated), read-out: QP Nav1.7 SSI vhalf pIC50 (converted).
The mark [2] stands for this setting: holding voltage −90 mV (most channels closed), read-out: QP Nav1.7 −90 mV pIC50 (converted).

Counter-ions that a name gives are not always drawn. Like-named read-outs stand apart in the source and are kept apart here.

T1 sequence (Q15858 whole entry): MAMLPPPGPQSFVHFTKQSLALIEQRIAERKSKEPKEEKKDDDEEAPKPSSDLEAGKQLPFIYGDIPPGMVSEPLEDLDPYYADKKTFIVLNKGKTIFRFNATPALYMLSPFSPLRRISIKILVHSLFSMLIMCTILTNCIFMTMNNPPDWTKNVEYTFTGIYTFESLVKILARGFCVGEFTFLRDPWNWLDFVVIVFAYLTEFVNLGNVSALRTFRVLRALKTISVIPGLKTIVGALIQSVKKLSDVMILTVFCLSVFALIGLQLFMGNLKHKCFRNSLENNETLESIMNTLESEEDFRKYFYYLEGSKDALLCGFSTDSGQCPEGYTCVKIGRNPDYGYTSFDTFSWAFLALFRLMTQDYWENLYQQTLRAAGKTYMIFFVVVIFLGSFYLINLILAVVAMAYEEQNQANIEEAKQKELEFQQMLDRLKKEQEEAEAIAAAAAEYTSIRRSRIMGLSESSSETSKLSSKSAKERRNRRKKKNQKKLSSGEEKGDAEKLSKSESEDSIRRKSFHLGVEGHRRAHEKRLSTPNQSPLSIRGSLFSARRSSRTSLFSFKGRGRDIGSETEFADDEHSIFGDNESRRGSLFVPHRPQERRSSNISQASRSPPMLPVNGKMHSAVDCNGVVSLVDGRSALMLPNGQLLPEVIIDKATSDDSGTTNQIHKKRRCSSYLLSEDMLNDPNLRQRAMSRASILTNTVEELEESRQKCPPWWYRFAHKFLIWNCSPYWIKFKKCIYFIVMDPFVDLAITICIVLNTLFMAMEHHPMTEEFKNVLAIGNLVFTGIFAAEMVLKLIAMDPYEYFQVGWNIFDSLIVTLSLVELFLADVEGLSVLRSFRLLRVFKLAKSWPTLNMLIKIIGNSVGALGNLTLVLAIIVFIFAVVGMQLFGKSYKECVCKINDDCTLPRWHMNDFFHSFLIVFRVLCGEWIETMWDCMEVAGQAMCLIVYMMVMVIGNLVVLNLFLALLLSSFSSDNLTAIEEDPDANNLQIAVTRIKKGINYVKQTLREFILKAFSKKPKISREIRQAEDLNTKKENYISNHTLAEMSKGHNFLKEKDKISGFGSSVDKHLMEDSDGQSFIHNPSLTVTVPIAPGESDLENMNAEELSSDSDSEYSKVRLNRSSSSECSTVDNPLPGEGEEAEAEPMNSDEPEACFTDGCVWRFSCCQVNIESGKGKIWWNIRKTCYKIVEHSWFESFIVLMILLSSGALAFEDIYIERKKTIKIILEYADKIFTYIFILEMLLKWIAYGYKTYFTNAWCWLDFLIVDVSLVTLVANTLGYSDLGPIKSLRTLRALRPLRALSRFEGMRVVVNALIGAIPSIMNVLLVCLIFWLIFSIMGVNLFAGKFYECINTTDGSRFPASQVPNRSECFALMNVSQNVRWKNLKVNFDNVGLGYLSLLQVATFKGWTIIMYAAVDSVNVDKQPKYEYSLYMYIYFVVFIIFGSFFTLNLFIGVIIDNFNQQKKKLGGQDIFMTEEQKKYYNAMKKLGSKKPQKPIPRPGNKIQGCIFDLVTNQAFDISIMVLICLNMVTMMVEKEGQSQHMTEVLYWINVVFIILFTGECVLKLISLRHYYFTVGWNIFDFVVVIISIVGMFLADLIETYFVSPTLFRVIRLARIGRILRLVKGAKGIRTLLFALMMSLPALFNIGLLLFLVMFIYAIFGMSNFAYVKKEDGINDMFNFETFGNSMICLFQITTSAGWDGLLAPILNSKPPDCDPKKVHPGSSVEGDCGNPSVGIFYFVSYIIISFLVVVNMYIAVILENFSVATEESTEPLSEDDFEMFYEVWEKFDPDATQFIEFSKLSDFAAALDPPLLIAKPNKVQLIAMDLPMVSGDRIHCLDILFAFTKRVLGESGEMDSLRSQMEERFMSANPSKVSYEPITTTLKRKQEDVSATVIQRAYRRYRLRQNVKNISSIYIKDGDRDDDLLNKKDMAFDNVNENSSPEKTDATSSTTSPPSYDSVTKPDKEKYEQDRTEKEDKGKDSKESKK

As for `CN1CC[C@@]2(CC(F)(F)C(c3cc(-c4ccc(C(F)(F)F)cc4)ccn3)N2)C1=O` (mixture of isomers) [Example 240, (5R)-3,3-Difluoro-7-methyl-2-[4-[4-(trifluoromethyl)phenyl]-2-pyridyl]-1,7-diazaspiro[4.4]nonan-6-one hydrochloride], the IC50 was 1.58 µM under setting [1] and 31.6 µM under setting [2].

Regarding `CCOc1ccc(F)c(-c2cc(C)nc(C3CCC4(CCN(C)C4=O)N3)c2C)c1` (mixture of isomers) [Example 256, 2-[4-(5-Ethoxy-2-fluoro-phenyl)-3,6-dimethyl-2-pyridyl]-7-methyl-1,7-diazaspiro[4.4]nonan-6-one hydrochloride], the IC50 under setting [1] was 2.51 µM and the IC50 under setting [2] is 20 µM.

With `CN1CC[C@@]2(CC(F)C(c3cc(-c4ccc(C(F)(F)F)cc4)ccn3)N2)C1=O` (single isomer, unassigned) [Example 238, hydrochloride], the IC50 under setting [1] is 2 µM and the IC50 under setting [2] is 50.1 µM.

Take `CN1CC[C@@]2(CC(F)C(c3cc(-c4ccc(C(F)(F)F)cc4)ccn3)N2)C1=O` (single isomer, unassigned) [Example 239]: the IC50 reads like this: under setting [1], 15.8 µM; under setting [2], 251 µM.

Turning to `CCOc1ccc(F)c(-c2cc(OC)nc([C@H]3CC[C@]4(CCN(C)C4=O)N3)c2)c1` (single isomer, unassigned) [Example 247, hydrochloride], the IC50 runs as follows: under setting [1], 1.26 µM; under setting [2], 20 µM.

Consider `CCOc1ccc(F)c(-c2cc(OC)nc([C@@H]3CC[C@]4(CCN(C)C4=O)N3)c2)c1` (single isomer, unassigned) [Example 248], for which the IC50 reads like this: under setting [1], 5.01 µM; under setting [2], 31.6 µM.

As to `CN1CC[C@@]2(CC[C@H](c3cc(-c4cccc(OC(F)(F)F)c4)ccn3)N2)C1=O.Cl` [Example 1, (2R,5S)-7-Methyl-2-[4-[3-(trifluoromethoxy)phenyl]-2-pyridyl]-1,7-diazaspiro[4.4]nonan-6-one hydrochloride], the “QP Nav1.7 SSI vhalf pIC50” value (holding voltage V1/2 SSI (half of channels inactivated)) was 5.5.

As for `Cc1cc(C)c(-c2ccnc([C@H]3CC[C@@]4(CCN(C)C4=O)N3)c2)c(C)c1` [Example 2, (2R,5S)-7-Methyl-2-[4-(2,4,6-trimethylphenyl)-2-pyridyl]-1,7-diazaspiro-[4.4]nonan-6-one hydrochloride], the IC50 is, setting by setting: under setting [1], 20 µM; under setting [2], 200 µM.

As to `CN1CC[C@@]2(CC[C@H](c3cc(-c4ccccc4OC(F)(F)F)ccn3)N2)C1=O` [Example 3, (2R,5S)-7-Methyl-2-[4-[2-(trifluoromethoxy)-phenyl]-2-pyridyl]-1,7-diazaspiro-[4.4]nonan-6-one hydrochloride], the IC50 by setting is: under setting [1], 7.94 µM; under setting [2], 63.1 µM.

Take `CCOc1ccc(F)cc1-c1ccnc([C@H]2CC[C@@]3(CCN(C)C3=O)N2)c1` [Example 4, (2R,5S)-2-[4-(2-Ethoxy-5-fluoro-phenyl)-pyridin-2-yl]-7-methyl-1,7-diaza-spiro[4.4]nonan-6-one hydrochloride]: the IC50 runs as follows: under setting [1], 12.6 µM; under setting [2], 200 µM.

As for `CN1CC[C@@]2(CC[C@H](c3cc(-c4ccc(OC(F)(F)F)cc4)ccn3)N2)C1=O` [Example 5, (2R,5S)-7-Methyl-2-[4-(4-trifluoro-methoxy-phenyl)-pyridin-2-yl]-1,7-diaza-spiro[4.4]nonan-6-one hydrochloride], the IC50 reads like this: under setting [1], 3.98 µM; under setting [2], 25.1 µM.

For the molecule `CN1CC[C@@]2(CC[C@H](c3cc(-c4ccccc4)ccn3)N2)C1=O` [Example 6, (2R,5S)-7-Methyl-2-(4-phenyl-pyridin-2-yl)-1,7-diaza-spiro[4.4]nonan-6-one hydrochloride], the IC50 under setting [1] is 31.6 µM and the IC50 under setting [2] was 158 µM.

For the molecule `CN1CC[C@@]2(CC[C@H](c3cc(-c4ccccc4C(F)(F)F)ccn3)N2)C1=O` [Example 7, (2R,5S)-7-Methyl-2-[4-[2-(trifluoro-methyl)phenyl]-2-pyridyl]-1,7-diazaspiro[4.4]nonan-6-one hydrochloride], the IC50 reads like this: under setting [1], 31.6 µM; under setting [2], 100 µM.

For the molecule `CCOc1ccc(F)c(-c2ccnc([C@H]3CC[C@@]4(CCN(C)C4=O)N3)c2)c1` [Example 8, (2R,5S)-2-[4-(5-Ethoxy-2-fluoro-phenyl)-2-pyridyl]-7-methyl-1,7-diazaspiro[4.4]nonan-6-one hydrochloride], the IC50 reads like this: under setting [1], 0.794 µM; under setting [2], 10 µM.

Consider `CN1CC[C@@]2(CC[C@H](c3cc(-c4ccc(F)cc4F)ccn3)N2)C1=O` [Example 9, (2R,5S)-2-[4-(2,4-Difluorophenyl)-2-pyridyl]-7-methyl-1,7-diazaspiro[4.4]nonan-6-one hydrochloride], for which the IC50 under setting [1] was 63.1 µM and the IC50 under setting [2] is 1000 µM.

Consider `COc1ccc(F)cc1-c1ccnc([C@H]2CC[C@@]3(CCN(C)C3=O)N2)c1` [Example 10, (2R,5S)-2-[4-(5-Fluoro-2-methoxy-phenyl)-2-pyridyl]-7-methyl-1,7-diazaspiro[4.4]nonan-6-one hydrochloride], for which the IC50 is 50.1 µM under setting [1] and 3980 µM under setting [2].

Consider `CN1CC[C@@]2(CC[C@H](c3cc(-c4ccc(F)c(F)c4)ccn3)N2)C1=O` [Example 11, (2R,5S)-2-[4-(3,4-Difluorophenyl)-2-pyridyl]-7-methyl-1,7-diazaspiro[4.4]nonan-6-one hydrochloride], for which the IC50 by setting is: under setting [1], 25.1 µM; under setting [2], 200 µM.

For `CN1CC[C@@]2(CC[C@H](c3cc(-c4ccc(C(F)(F)F)cc4F)ccn3)N2)C1=O` [Example 12, (2R,5S)-2-[4-[2-Fluoro-4-(trifluoromethyl)phenyl]-2-pyridyl]-7-methyl-1,7-diazaspiro[4.4]nonan-6-one hydrochloride], the IC50 runs as follows: under setting [1], 10 µM; under setting [2], 50.1 µM.

With `CN1CC[C@@]2(CC[C@H](c3cc(-c4ccc(Cl)cc4)ccn3)N2)C1=O` [Example 13, (2R,5S)-2-[4-(4-Chlorophenyl)-2-pyridyl]-7-methyl-1,7-diazaspiro[4.4]nonan-6-one hydrochloride], the IC50 reads like this: under setting [1], 6.31 µM; under setting [2], 25.1 µM.

Regarding `Cc1c(-c2ccc(C(F)(F)F)cc2)ccnc1[C@H]1CC[C@]2(CCN(C)C2=O)N1` [Example 14, (2R,5R)-7-Methyl-2-[3-methyl-4-[4-(trifluoromethyl)phenyl]-2-pyridyl]-1,7-diazaspiro[4.4]nonan-6-one hydrochloride], the IC50 under setting [1] was 10 µM and the IC50 under setting [2] is 63.1 µM.

With `Cc1c(-c2ccc(C(F)(F)F)cc2)ccnc1[C@@H]1CC[C@]2(CCN(C)C2=O)N1` [Example 15, (2S,5R)-7-Methyl-2-[3-methyl-4-[4-(trifluoromethyl)phenyl]-2-pyridyl]-1,7-diazaspiro[4.4]nonan-6-one hydrochloride], the IC50 is, setting by setting: under setting [1], 6.31 µM; under setting [2], 25.1 µM.

Take `Cc1c(-c2ccc(C(F)(F)F)cc2)ccnc1[C@@H]1CC[C@@]2(CCN(C)C2=O)N1` [Example 16, (2S,5S)-7-Methyl-2-[3-methyl-4-[4-(trifluoromethyl)phenyl]-2-pyridyl]-1,7-diazaspiro[4.4]nonan-6-one hydrochloride]: the IC50 is, setting by setting: under setting [1], 12.6 µM; under setting [2], 100 µM.

Consider `Cc1c(-c2ccc(C(F)(F)F)cc2)ccnc1[C@H]1CC[C@@]2(CCN(C)C2=O)N1` [Example 17, (2R,5S)-7-Methyl-2-[3-methyl-4-[4-(trifluoromethyl)phenyl]-2-pyridyl]-1,7-diazaspiro[4.4]nonan-6-one hydrochloride], for which the IC50 was 3.16 µM under setting [1] and 20 µM under setting [2].

For the molecule `Cc1c(-c2ccc(F)cc2)ccnc1[C@@H]1CC[C@]2(CCN(C)C2=O)N1` [Example 18, (2S,5R)-7-Methyl-2-[3-methyl-4-[4-fluorophenyl]-2-pyridyl]-1,7-diazaspiro[4.4]nonan-6-one hydrochloride], the IC50 runs as follows: under setting [1], 31.6 µM; under setting [2], 794 µM.

With `Cc1c(-c2ccc(F)cc2)ccnc1[C@H]1CC[C@@]2(CCN(C)C2=O)N1` [Example 19, (2R,5S)-2-[4-(4-Fluorophenyl)-3-methyl-2-pyridyl]-7-methyl-1,7-diazaspiro[4.4]nonan-6-one hydrochloride], the IC50 by setting is: under setting [1], 6.31 µM; under setting [2], 50.1 µM.

Consider `Cc1c(-c2ccc(F)cc2)ccnc1[C@@H]1CC[C@@]2(CCN(C)C2=O)N1` [Example 20, (2S,5S)-2-[4-(4-Fluorophenyl)-3-methyl-2-pyridyl]-7-methyl-1,7-diazaspiro[4.4]nonan-6-one hydrochloride], for which the IC50 reads like this: under setting [1], 31.6 µM; under setting [2], 316 µM.

Consider `Cc1cc(-c2cc(C(F)(F)F)ccc2C#N)cc([C@@H]2CC[C@]3(CCN(C)C3=O)N2)n1` [Example 21, 2-[2-Methyl-6-[(2S,5R)-7-methyl-6-oxo-1,7-diazaspiro[4.4]-nonan-2-yl]-4-pyridyl]-4-(trifluoromethyl)-benzonitrile hydrochloride], for which the IC50 by setting is: under setting [1], 31.6 µM; under setting [2], 794 µM.
